Measurements from US4446047A, “Pleochroic anthraquinone dyes” (Imperial Chemical Industries PLC, priority 1981, dated 1984).

Legend:
Type in all cases: physicochemical
[1] = Absorption maximum in liquid crystal medium E43; conditions: E43, 20° C.; for λmax: Table 4; for max: HPLC fractions, Table 3
Text: Detection was by means of a u.v. source (254 nm) and samples, corresponding to all the peaks in the chromatogram, were collected.

[2] = Order parameter in liquid crystal medium E43; conditions: E43, 20° C.
Experimental: In order to provide maximum contrast between the two states it is important that the guest molecules adopt as closely as possible the time averaged orientation of the host, however this is achieved only to a limited degree because of random thermal fluctuations. The degree to which the orientation varies from the ideal is measured by a quantity known as the order parameter S which is given by the following equation: […]
where cos^2 θ is a time averaged term and θ is the instantaneous angular orientation of the molecules with respect to the time averaged orientation of the host molecules.

[3] = Molar extinction coefficient in chloroform
Experimental: To a mixture of 9.4 g of 2,7-di-n-pentyl-4,5-dinitrochrysazin from Example 25(b) in 200 ml of pyridine at 20° C. there was added a solution of 2.2 ml of thiophenol in 50 ml of pyridine. The colour of the mixture gradually changed from orange-brown to red and after 2 hours at 20° C. was drowned into water, filtered, washed successively with water and methanol and dried to yield 9.5 g of product (88% theory). The structure was confirmed by mass spectrometry and elemental analysis, C=67.5 (67.5) H=5.8 (5.8) S=6.7 (6.0) and N=3.0 (2.7).
To a mixture of 1.7 ml of 4-t-butylphenylmercaptan and 0.4 g of KOH in 50 ml of isopropanol at 60° C. was added 3.7 g of the product of Example 25(c) and the temperature raised to 80° C. for 1.5 hour. It was then cooled to room temperature, filtered, washed successively with isopropanol and methanol and dried to give 3.5 g of product. After recrystallisation from petroleum ether, the structure was confirmed by mass spectrometry and elemental analysis, C=73.0 (73.6) H=6.5 (6.8) S=9.1 (9.8).
The process of Example 25(c) was repeated using 9.6 g of 2,7-n-heptyl-4,5-dinitrochrysazin in place of the 9.4 g of 2,7-di-n-pentyl-4,5-dinitrochrysazin. The structure was confirmed by mass spectrometry.
The process of Example 25(d) was repeated using 3.8 g of 2,7-di-n-heptyl-4-phenylthio-5-nitrochrysazin in place of the 3.7 g of 2,7-di-n-pentyl-4-phenylthio-5-nitrochrysazin. After recrystallisation from petroleum ether, the structure was confirmed by mass spectrometry.

Compound	λmax [1]	Order Parameter ([2]; Table 4)	further results
Cc1cccc(Sc2cccc3c2C(=O)c2cccc(Sc4ccccc4)c2C3=O)c1 [Example 12, 1-phenylthio-5(3-methylphenylthio)AQ]	464 nm	0.78	
CC(C)(C)c1ccc(Sc2ccc(Sc3ccccc3)c3c2C(=O)c2c(Sc4ccccc4)ccc(Sc4ccccc4)c2C3=O)cc1 [Fraction 5, tris-(phenylthio)-t-butylphenylthio-AQ]			max [1]: 550 nm; Order Parameter ([2]; HPLC fractions, Table 3): 0.78
O=C1c2cccc(Sc3ccc(-c4ccccc4)cc3)c2C(=O)c2cccc(Sc3ccccc3)c21 [Example 15, 1-phenylthio-5(4-phenylphenylthio)AQ]	460 nm	0.78	
CC(CCc1cc(Sc2ccccc2)c2c(c1O)C(=O)c1c(O)c(CCC(C)CC(C)(C)C)cc(Sc3ccccc3)c1C2=O)CC(C)(C)C (stereo not shown) [23(f), 1,8-dihydroxy-2,7-dinonyl-4,5-diphenylthio-AQ]	590 nm	0.72	
CC(C)(C)c1ccc(Sc2ccc(Sc3ccc(C(C)(C)C)cc3)c3c2C(=O)c2c(Sc4ccc(C(C)(C)C)cc4)ccc(Sc4ccc(C(C)(C)C)cc4)c2C3=O)cc1 (single isomer, unassigned) [1,4,5,8-tetrakis(4-t-butylphenylthio)anthraquinone, reference compound]			max [1]: 550 nm; Order Parameter ([2]; HPLC fractions, Table 3): 0.78
CCCCCc1cc(Sc2ccccc2)c2c(c1O)C(=O)c1c(O)c(CCCCC)cc([N+](=O)[O-])c1C2=O [Example 25(c), 2,7-Di-n-pentyl-4-phenylthio-5-nitrochrysazin]			molar extinction coefficient ([3]; 540 nm): 12,541
O=C1c2cccc(SC3CCCCC3)c2C(=O)c2cccc(Sc3ccccc3)c21 [Example 16, 1-phenylthio-5-cyclohexylthio-AQ]	465 nm	0.81	
CCCCCCCCCCCCc1cc(Sc2ccccc2)c2c(c1O)C(=O)c1c(O)c(CCCCCCCCCCCC)cc(Sc3ccc(C(C)(C)C)cc3)c1C2=O [24(d), 1,8-dihydroxy-2,7-didodecyl-4-phenylthio-5-(4-t-butylphenylthio)-AQ]	590 nm	0.83	
CC(CCc1cc(Sc2ccccc2)c2c(c1O)C(=O)c1c(Sc3ccccc3)cc(CCC(C)CC(C)(C)C)c(O)c1C2=O)CC(C)(C)C (stereo not shown) [Example 23(e), 1,5-dihydroxy-2,6-dinonyl-4,8-diphenylthio-AQ]	590 nm	0.77	
CC(CCc1cc(N)c2c(c1O)C(=O)c1c(Sc3ccccc3)cc(CCC(C)CC(C)(C)C)c(O)c1C2=O)CC(C)(C)C (stereo not shown) [Example 23(c), 1,5-dihydroxy-2,6-dinonyl-4-phenylthio-8-aminoanthraquinone]	565/610	0.73	
CCCCCc1cc(Sc2ccccc2)c2c(c1O)C(=O)c1c(O)c(CCCCC)cc(Sc3ccc(C(C)(C)C)cc3)c1C2=O [Example 25(d), 2,7-di-n-pentyl-4-phenylthio-5-(4-t-butylphenylthio)chrysazin]	592 nm	0.77	molar extinction coefficient ([3]; 592 nm): 19,183
CC(C)(C)c1ccc(Sc2cccc3c2C(=O)c2c(Sc4ccccc4)ccc(Sc4ccc(C(C)(C)C)cc4)c2C3=O)cc1 [Example 22, 1,5-di(4-t-butylphenylthio)-4-phenylthio-AQ]	520 nm	0.81	
Cc1ccc(Sc2cccc3c2C(=O)c2cccc(Sc4ccccc4)c2C3=O)cc1 [Example 13, 1-phenylthio-5(4-methylphenylthio)AQ]	464 nm	0.80	
CCCCSc1cccc2c1C(=O)c1cccc(Sc3ccccc3)c1C2=O [Example 14, 1-phenylthio-5(n-butylthio)AQ]	470 nm	0.75	
bis-(phenylthio)-bis-(t-butylphenylthio)AQ [Fraction 4]			max [1]: 550 nm; Order Parameter ([2]; HPLC fractions, Table 3): 0.77
CC(C)(C)c1ccc(Sc2ccc(N)c3c2C(=O)c2c(N)ccc(Sc4ccccc4)c2C3=O)cc1 [Example 18, 1-phenylthio-5(4-t-butylphenylthio)-4,8-diamino-AQ]	605 nm	0.73	
CC(CCc1cc(N)c2c(c1O)C(=O)c1c(O)c(CCC(C)CC(C)(C)C)cc(Sc3ccccc3)c1C2=O)CC(C)(C)C (stereo not shown) [23(d), 1,8-dihydroxy-2,7-di-nonyl-4-phenylthio-5-aminoanthraquinone]	565/610	0.74	
bis-(phenylthio)-bis-(t-butylphenylthio)AQ [Fraction 3a]			max [1]: 550 nm; Order Parameter ([2]; HPLC fractions, Table 3): 0.78
O=C1c2c(Sc3ccccc3)ccc(Sc3ccccc3)c2C(=O)c2c(Sc3ccccc3)ccc(Sc3ccccc3)c21 (single isomer, unassigned) [1,4,5,8-tetrakis(phenylthio)anthraquinone, reference compound]			max [1]: 550 nm; Order Parameter ([2]; HPLC fractions, Table 3): 0.78
CCCCCCCc1cc(Sc2ccccc2)c2c(c1O)C(=O)c1c(O)c(CCCCCCC)cc([N+](=O)[O-])c1C2=O [Example 26(c), 2,7-Di-n-heptyl-4-phenylthio-5-nitrochrysazin]			molar extinction coefficient ([3]; 540 nm): 12,095
CC(C)(C)c1ccc(Sc2ccc(Sc3ccccc3)c3c2C(=O)c2c(Sc4ccc(C(C)(C)C)cc4)ccc(Sc4ccc(C(C)(C)C)cc4)c2C3=O)cc1 [Fraction 2, tris-(t-butylphenylthio)-phenylthio-AQ]			max [1]: 550 nm; Order Parameter ([2]; HPLC fractions, Table 3): 0.78
CC(CCc1cc(Sc2ccccc2)c2c(c1O)C(=O)c1c([N+](=O)[O-])cc(CCC(C)CC(C)(C)C)c(O)c1C2=O)CC(C)(C)C (stereo not shown) [Example 23(a), 1,5-dihydroxy-2,6-dinonyl-4-phenylthio-8-nitroanthraquinone]	565/610	0.72	
